Among the test systems are BT-549 breast; HOP-92 NSCLC; HCC-2998 colon; A549 NSCLC; OVCAR-5 ovarian; PC-3 prostate; SNB-75 CNS; EKVX NSCLC; OVCAR-4 ovarian; K-562 leukemia.
What all share (test): DTP human tumour cell line panel, 48 h

SMILES strings stand for the structures. Where “and” joins values, the source holds several entries; their conditions need not be identical. Equal values may be shown once.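 Grown in 96-well plates, cells were treated for 48 hours with each compound at five concentrations. Insufficient inhibition: endpoint recorded as highest concentration tested. The concentration for 50% growth inhibition is given as GI50. Definition used: TGI = concentration required for complete inhibition of growth.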

The TGI is the concentration giving total growth inhibition. High values mean less potent growth arrest, low ones more potent growth arrest. For `CCOc1cc(C=Nc2ccc(Oc3ccc(Cl)cc3)c(Cl)c2)ccc1O`, the TGI in the experiment with BT-549 breast was 52 µM; in the experiment with HOP-92 NSCLC, 39.6 µM; with HCC-2998 colon it was 43.4 µM; with A549 NSCLC, over 100 µM; in the experiment with OVCAR-5 ovarian it was 79.7 µM; with PC-3 prostate, 88.7 µM. Moreover, the TGI with SNB-75 CNS stood at 45.7 µM; with EKVX NSCLC, 41.3 µM; in the experiment with OVCAR-4 ovarian it was 80.4 µM.
On to `C[N+](C)(C)c1nc(N)nc2c1ncn2C1OC(CO)C(O)C1O` (stereo not drawn), for which the TGI in the experiment on BT-549 breast, in the experiment with HOP-92 NSCLC, with HCC-2998 colon, with A549 NSCLC, with K-562 leukemia and with OVCAR-5 ovarian was over 100 µM throughout. Also, the TGI in the experiment on PC-3 prostate, in the experiment on SNB-75 CNS, in the experiment with EKVX NSCLC and in the experiment with OVCAR-4 ovarian was over 100 µM throughout.
As for `NC(=S)NS(=O)(=O)c1ccc(Cl)cc1Cl`, the TGI in the experiment on BT-549 breast, in the experiment with HOP-92 NSCLC, in the experiment on HCC-2998 colon, in the experiment on A549 NSCLC, in the experiment on K-562 leukemia and with OVCAR-5 ovarian was over 100 µM in each case. Besides, the TGI with PC-3 prostate, with SNB-75 CNS, in the experiment with EKVX NSCLC and in the experiment with OVCAR-4 ovarian was over 100 µM each time.
As to `Cc1ccc(N=Nc2cc(=O)[nH]c(=O)[nH]2)cc1C`, the total growth inhibition concentration (TGI) is 26.6 µM with BT-549 breast; 33.4 µM in the experiment with HOP-92 NSCLC; 19.9 µM in the experiment on HCC-2998 colon; 34.7 µM in the experiment with A549 NSCLC; over 100 µM with K-562 leukemia; 28.8 µM with OVCAR-5 ovarian. The TGI in the experiment with PC-3 prostate came out at 11.7 µM; in the experiment on SNB-75 CNS, 15.3 µM; in the experiment with EKVX NSCLC it was 34.7 µM; in the experiment on OVCAR-4 ovarian it was 31.8 µM.
In the case of `COC(=O)[C@]12CCC(=O)N1[C@H](C(=O)O)Cc1c2[nH]c2ccccc12`, the TGI in the experiment with BT-549 breast, in the experiment with HOP-92 NSCLC, in the experiment with HCC-2998 colon, in the experiment with A549 NSCLC, in the experiment with K-562 leukemia and in the experiment on OVCAR-5 ovarian was over 100 µM each time. Further, the TGI in the experiment on PC-3 prostate, in the experiment on SNB-75 CNS, in the experiment on EKVX NSCLC and with OVCAR-4 ovarian was over 100 µM each time.
As for `CC(C)=CCC/C(C)=C/CCC1(C)C2COC(=O)C21` (stereo not drawn), the concentration for total growth inhibition (TGI) is over 100 µM in the experiment with BT-549 breast; 87 µM with HOP-92 NSCLC; over 100 µM in the experiment with HCC-2998 colon; 49.2 µM with K-562 leukemia; over 100 µM with OVCAR-5 ovarian; over 100 µM in the experiment with PC-3 prostate. For the same compound, the TGI in the experiment on EKVX NSCLC and in the experiment with OVCAR-4 ovarian was over 100 µM in each case.
Take `Cc1ccc2c3ccc4c(c3n(C)c2c1)C(=O)C=CC4=O`: the TGI in the experiment with BT-549 breast is over 7.22 µM; in the experiment with HOP-92 NSCLC, 7.26 µM; in the experiment on HCC-2998 colon it was over 10 µM; with A549 NSCLC it was over 10 µM; in the experiment with K-562 leukemia it was 3.75 µM; in the experiment with OVCAR-5 ovarian, over 10 µM. The concentration for total growth inhibition (TGI) was over 10 µM in the experiment with PC-3 prostate, over 10 µM in the experiment on SNB-75 CNS, over 10 µM with EKVX NSCLC and over 7.77 µM in the experiment on OVCAR-4 ovarian.
Take `CN(C)CCCN1C(=O)N(CCCN(C)C)c2c3cc(O)ccc3nc3c([N+](=O)[O-])ccc1c23`: the TGI is 33.7 µM in the experiment on BT-549 breast; 36.7 µM with HOP-92 NSCLC; 26.8 µM in the experiment with HCC-2998 colon; 39.6 µM with A549 NSCLC; 23.7 µM with K-562 leukemia; over 100 µM with OVCAR-5 ovarian. Moreover, the TGI is 24 µM in the experiment with PC-3 prostate, over 100 µM in the experiment on SNB-75 CNS and 17.8 µM in the experiment with OVCAR-4 ovarian.
Broadly, the GI50 is the concentration giving 50% growth inhibition. For the compound `Nc1ncnc2c(C3OC(CO)C(O)C3O)c[nH]c12` (stereo not drawn), the concentration for total growth inhibition (TGI) with BT-549 breast was 0.237 µM and 0.297 µM; with HOP-92 NSCLC it was 0.00836 µM and 0.0664 µM; in the experiment with HCC-2998 colon, 0.247 µM and 0.343 µM; in the experiment on A549 NSCLC it was 0.0775 µM and 0.434 µM; in the experiment on K-562 leukemia, 0.116 µM and 0.0193 µM; in the experiment with OVCAR-5 ovarian, 0.657 µM and 0.675 µM. The TGI is 0.128 µM and 0.324 µM in the experiment with PC-3 prostate; 0.0984 µM and 0.459 µM with SNB-75 CNS; 0.415 µM and 0.274 µM in the experiment on EKVX NSCLC; 0.705 µM and 0.741 µM with OVCAR-4 ovarian. Further, the GI50 is 0.00215 µM with HOP-92 NSCLC, under 0.0119 µM in the experiment with OVCAR-5 ovarian and under 0.0171 µM in the experiment with EKVX NSCLC.
For the compound `Oc1cc(Br)cc2cc(Br)cnc12`, the TGI in the experiment on BT-549 breast is over 100 µM; in the experiment on HOP-92 NSCLC it was 83.8 µM; with HCC-2998 colon, 57.3 µM; in the experiment with A549 NSCLC it was over 100 µM; with K-562 leukemia, 94.2 µM; with PC-3 prostate, over 100 µM. Also, the TGI in the experiment on SNB-75 CNS is over 100 µM; with EKVX NSCLC it was 37.4 µM; with OVCAR-4 ovarian, 9.59 µM.
As for `O=c1oc2ccccc2cc1-c1nc2ccccc2s1`, the total growth inhibition concentration (TGI) with BT-549 breast is 46.4 µM; in the experiment with HOP-92 NSCLC, 22.3 µM; in the experiment on HCC-2998 colon, over 100 µM; with A549 NSCLC, 16.8 µM; in the experiment with OVCAR-5 ovarian it was 65.3 µM; in the experiment with PC-3 prostate it was over 84.3 µM. Also, the TGI in the experiment with SNB-75 CNS turned out to be 17.4 µM; in the experiment with EKVX NSCLC, 39.2 µM; in the experiment on OVCAR-4 ovarian it was 29 µM.
For `COc1ccc(C2=C(N)c3ccccc3C2=O)cc1`, the total growth inhibition concentration (TGI) with BT-549 breast, in the experiment on HOP-92 NSCLC, in the experiment on HCC-2998 colon, in the experiment with A549 NSCLC, in the experiment with OVCAR-5 ovarian and in the experiment with PC-3 prostate was over 100 µM each time. Further, the TGI is 78.7 µM in the experiment on SNB-75 CNS, over 100 µM with EKVX NSCLC and over 100 µM in the experiment with OVCAR-4 ovarian.
With `Cc1cc(=O)[nH]c(S(=O)(=O)NC(=S)Nc2ccc(Br)cc2)n1`, the TGI with BT-549 breast, with HOP-92 NSCLC, in the experiment with HCC-2998 colon, in the experiment with OVCAR-5 ovarian, in the experiment with PC-3 prostate and in the experiment with SNB-75 CNS was over 100 µM each time. The TGI in the experiment on EKVX NSCLC and in the experiment on OVCAR-4 ovarian was over 100 µM throughout.
Turning to `CC(C)(C)OC(=O)N[C@@H](Cc1ccccc1)C(=O)N1CC[C@@H](C(=O)N2[C@H]3CC4CC[C@@]3(CS2(=O)=O)C4(C)C)N1`, the TGI with BT-549 breast, in the experiment with HOP-92 NSCLC, in the experiment with HCC-2998 colon, in the experiment on A549 NSCLC, in the experiment on K-562 leukemia and in the experiment with OVCAR-5 ovarian was over 100 µM in each case. Further, the TGI with PC-3 prostate, in the experiment with SNB-75 CNS and in the experiment on OVCAR-4 ovarian was over 100 µM in each case.

The values above are taken from PubChem BioAssay (NCI).
